Measurements reported in US7718808B2, “Thiazole derivatives” (Kyowa Hakko Kirin Co., Ltd., priority 2003, dated 2010).

| melting point [°C] | SMILES |
| --- | --- |
| 194 to 196 | O=C(Nc1nc(-c2ccco2)c(C(=O)C2CCOCC2)s1)c1ccc2c(c1)OCO2 [Compound 496, N-[4-(2-Furyl)-5-(tetrahydropyran-4-ylcarbonyl)thiazol-2-yl]-1,3-benzodioxole-5-carboxamide] |
| 124 to 129 | O=C(Nc1nc(-c2ccco2)c(C(=O)C2CCOCC2)s1)c1ccc2c(c1)OC(F)(F)O2 [Compound 498, 2,2-Difluoro-N-[4-(2-furyl)-5-(tetrahydropyran-4-ylcarbonyl)thiazol-2-yl]-1,3-benzodioxole-5-carboxamide] |
| 169 to 173 | Cc1cc(C(=O)Nc2nc(-c3ccco3)c(C(=O)C3CCOCC3)s2)ccn1 [Compound 500, N-[4-(2-Furyl)-5-(tetrahydropyran-4-ylcarbonyl)thiazol-2-yl]-2-methylpyridine-4-carboxamide] |
| 209 to 212 | Cc1ccc(C(=O)Nc2nc(-c3ccco3)c(C(=O)C3CCOCC3)s2)o1 [Compound 512, N-[4-(2-Furyl)-5-(tetrahydropyran-4-ylcarbonyl)thiazol-2-yl]-5-methylfuran-2-carboxamide] |
| 236 to 238 | O=C(Nc1nc(-c2ccco2)c(C(=O)C2CCOCC2)s1)c1ccoc1 [Compound 516, N-[4-(2-Furyl)-5-(tetrahydropyran-4-ylcarbonyl)thiazol-2-yl]furan-3-carboxamide] |
| 243 to 247 | Cn1cc(C(=O)Nc2nc(-c3ccco3)c(C(=O)C3CCOCC3)s2)cn1 [Compound 519, N-[4-(2-Furyl)-5-(tetrahydropyran-4-ylcarbonyl)thiazol-2-yl]-1-methylpyrazole-4-carboxamide] |
| 170 to 174 | CCn1cc(C(=O)Nc2nc(-c3ccco3)c(C(=O)C3CCOCC3)s2)cn1 [Compound 520, 1-Ethyl-N-[4-(2-furyl)-5-(tetrahydropyran-4-ylcarbonyl)thiazol-2-yl]pyrazole-4-carboxamide] |
| 140 to 142 | O=C(Cc1ccccc1)Nc1nc(-c2ccco2)c(C(=O)C2CCOCC2)s1 [Compound 526, N-[4-(2-Furyl)-5-(tetrahydropyran-4-ylcarbonyl)thiazol-2-yl]-2-phenylacetamide] |

The remaining lines, values behind:

| SMILES | melting point [°C] |
| --- | --- |
| O=C(Nc1nc(-c2ccco2)c(C(=O)C2CCOCC2)s1)c1cccc2c1OCCO2 [Compound 495, N-[4-(2-Furyl)-5-(tetrahydropyran-4-ylcarbonyl)thiazol-2-yl]-1,4-benzodioxane-5-carboxamide] | 188 to 190 |
| O=C(Nc1nc(-c2ccco2)c(C(=O)C2CCOCC2)s1)c1cccc2c1OC(F)(F)O2 [Compound 497, 2,2-Difluoro-N-[4-(2-furyl)-5-(tetrahydropyran-4-ylcarbonyl)thiazol-2-yl]-1,3-benzodioxole-4-carboxamide] | 206 to 207 |
| O=C(Nc1nc(-c2ccco2)c(C(=O)C2CCOCC2)s1)c1ccnc(Cl)c1 [Compound 499, 2-Chloro-N-(4-(2-furyl)-5-(tetrahydropyran-4-ylcarbonyl)thiazol-2-yl]pyridine-4-carboxamide] | 185 to 186 |
| O=C(Nc1nc(-c2ccco2)c(C(=O)C2CCOCC2)s1)c1cccnc1 [Compound 501, N-[4-(2-Furyl)-5-(tetrahydropyran-4-ylcarbonyl)thiazol-2-yl]pyridine-3-carboxamide] | 209 to 212 |
| O=C(Nc1nc(-c2ccco2)c(C(=O)C2CCOCC2)s1)c1ccc(N2CCOCC2)nc1 [Compound 503, N-[4-(2-Furyl)-5-(tetrahydropyran-4-ylcarbonyl)thiazol-2-yl]-2-morpholinopyridine-5-carboxamide] | 166 to 170 |
| O=C(Nc1nc(-c2ccco2)c(C(=O)C2CCOCC2)s1)c1ccc(C(F)(F)F)nc1 [Compound 505, N-[4-(2-Furyl)-5-(tetrahydropyran-4-ylcarbonyl)thiazol-2-yl]-2-(trifluoromethyl)pyridine-5-carboxamide] | 217 to 222 |
| Cc1cncc(C(=O)Nc2nc(-c3ccco3)c(C(=O)C3CCOCC3)s2)c1 [Compound 506, N-[4-(2-Furyl)-5-(tetrahydropyran-4-ylcarbonyl)thiazol-2-yl]-5-methylpyridine-3-carboxamide] | 239 to 243 |
| O=C(Nc1nc(-c2ccco2)c(C(=O)C2CCOCC2)s1)c1ccccn1 [Compound 507, N-[4-(2-Furyl)-5-(tetrahydropyran-4-ylcarbonyl)thiazol-2-yl]pyridine-2-carboxamide] | 185 to 186 |
| O=C(Nc1nc(-c2ccco2)c(C(=O)C2CCOCC2)s1)c1cnccn1 [Compound 509, N-[4-(2-Furyl)-5-(tetrahydropyran-4-ylcarbonyl)thiazol-2-yl]pyrazine-2-carboxamide] | 200 to 205 |
| Cc1cnc(C(=O)Nc2nc(-c3ccco3)c(C(=O)C3CCOCC3)s2)cn1 [Compound 510, N-[4-(2-Furyl)-5-(tetrahydropyran-4-ylcarbonyl)thiazol-2-yl]-5-methylpyrazine-2-carboxamide] | 130 to 131 |
| O=C(Nc1nc(-c2ccco2)c(C(=O)C2CCOCC2)s1)c1cccs1 [Compound 517, N-[4-(2-Furyl)-5-(tetrahydropyran-4-ylcarbonyl)thiazol-2-yl]thiophene-2-carboxamide] | 231 to 232 |
| O=C(Nc1nc(-c2ccco2)c(C(=O)C2CCOCC2)s1)c1ccsc1 [Compound 518, N-[4-(2-Furyl)-5-(tetrahydropyran-4-ylcarbonyl)thiazol-2-yl]thiophene-3-carboxamide] | 227 to 229 |
| O=C(Nc1nc(-c2ccco2)c(C(=O)C2CCOCC2)s1)c1cnn(-c2ccccc2)c1 [Compound 521, N-[4-(2-Furyl)-5-(tetrahydropyran-4-ylcarbonyl)thiazol-2-yl]-1-phenylpyrazole-4-carboxamide] | 217 to 220 |
| O=C(c1sc(NC(=O)C2CCCO2)nc1-c1ccco1)C1CCOCC1 (stereo not drawn) [Compound 523, N-[4-(2-Furyl)-5-(tetrahydropyran-4-ylcarbonyl)thiazol-2-yl]tetrahydrofuran-2-carboxamide] | 115 to 117 |
| O=C(Nc1nc(-c2ccco2)c(C(=O)C2CCOCC2)s1)C1CCOC1 (stereo not drawn) [Compound 524, N-[4-(2-Furyl)-5-(tetrahydropyran-4-ylcarbonyl)thiazol-2-yl]tetrahydrofuran-3-carboxamide] | 164 to 166 |
| O=C(CC1CCOCC1)Nc1nc(-c2ccco2)c(C(=O)C2CCOCC2)s1 [Compound 525, N-[4-(2-Furyl)-5-(tetrahydropyran-4-ylcarbonyl)thiazol-2-yl]-2-(tetrahydropyran-4-yl)acetamide] | 206 to 209 |
| O=C(CCc1ccccc1)Nc1nc(-c2ccco2)c(C(=O)C2CCOCC2)s1 [Compound 527, N-[4-(2-Furyl)-5-(tetrahydropyran-4-ylcarbonyl)thiazol-2-yl]-3-phenylpropanamide] | 161 to 164 |
| O=C(C=Cc1ccccc1)Nc1nc(-c2ccco2)c(C(=O)C2CCOCC2)s1 [Compound 528, N-[4-(2-Furyl)-5-(tetrahydropyran-4-ylcarbonyl)thiazol-2-yl]-3-phenylacrylamide] | 253 to 256 |
| O=C(COc1ccccc1)Nc1nc(-c2ccco2)c(C(=O)C2CCOCC2)s1 [Compound 529, N-[4-(2-Furyl)-5-(tetrahydropyran-4-ylcarbonyl)thiazol-2-yl]-2-phenoxyacetamide] | 148 to 150 |
